Measurements from patent publication US20100022491A1, “4-HYDROXY-2-OXO-2,3-DIHYDRO-1,3-BENZOTHIAZOL-7YL COMPOUNDS FOR MODULATION OF B2-ADRENORECEPTOR ACTIVITY” (ASTRAZENECA AB, priority 2006, published 2010).
Counter-ions that a name gives are not always drawn.

Tests used:
[1] = target: T1, recombinant human Dopamine Subtype D2s receptors (Homo sapiens, UniProt P14416); assay: Dopamine D2 selectivity binding assay ([3H]-spiperone); conditions: inhibition of [3H]-spiperone (0.16 nM) binding; read-out: D2 bind pIC50 (converted)
T1 construct: purchased Perkin Elmer
Experimental: Membranes containing recombinant human Dopamine Subtype D2s receptors were obtained from Perkin Elmer. These were diluted in Assay Buffer (50 mM HEPES, 1 mM EDTA, 120 mM NaCl, 0.1% gelatin, pH 7.4) to provide a final concentration of membranes that gave a clear window between maximum and minimum specific binding.
(§1) Assays were performed in U-bottomed 96-well polypropylene plates. 30 μL [^3H]-spiperone (0.16 nM final concentration) and 30 μL of test compound (10× final concentration) were added to each test well. For each assay plate 8 replicates were obtained for [^3H]-spiperone binding in the presence of 30 μL vehicle (10% (v/v) DMSO in Assay Buffer; defining maximum binding) or 30 μL Haloperidol (10 μM final concentration; defining non-specific binding (NSB)). Membranes were then added to achieve a final volume of 300 μL. The plates were incubated for 2 hours at room temperature and then filtered onto PEI coated GF/B filter plates, pre-soaked for 1 hour in Assay Buffer, using a 96-well plate Tomtec cell harvester. Five washes with 250 μL wash buffer (50 mM HEPES, 1 mM EDTA, 120 mM NaCl, pH 7.4) were performed at 4° C. to remove unbound radioactivity. The plates were dried then sealed from underneath using Packard plate sealers and MicroScint-O (50 μL) was added to each well. The plates were sealed (TopSeal A) and filter-bound radioactivity was measured with a scintillation counter (TopCount, Packard BioScience) using a 3-minute counting protocol.
(§2) Total specific binding (B0) was determined by subtracting the mean NSB from the mean maximum binding. NSB values were also subtracted from values from all other wells. […] Data was fitted to a four parameter logistic equation to determine the compound potency, which was expressed as pIC50 (negative log molar concentration inducing 50% inhibition of [^3H]-spiperone binding).

Adrenergic β2 = target: T2, Adrenergic β2 (Homo sapiens, UniProt P07550); assay: Adrenergic β2 mediated cAMP production in H292 cells; type: cell-based; conditions: for EC50: H292 cells, cAMP by AlphaScreen, 60 minutes at room temperature, rolipram 300 μM, read-out: β2 pEC50 (converted); for β2 Int Act: Intrinsic Activity as a fraction relative to the maximum activity determined for formoterol
T2 construct: Adherent H292 cells were removed from tissue culture flasks; endogenous in cells; host or cells: H292 cells
Experimental: Adrenergic β2 mediated cAMP production
H292 cells were grown in 225 cm2 flasks incubator at 37° C., 5% CO2 in RPMI medium containing, 10% (v/v) FBS (foetal bovine serum) and 2 mM L-glutamine.
Adherent H292 cells were removed from tissue culture flasks by treatment with Accutase™ cell detachment solution for 15 minutes. Flasks were incubated for 15 minutes in a humidified incubator at 37° C., 5% CO2. Detached cells were re-suspended in RPMI media (containing 10% (v/v) FBS and 2 mM L-glutamine) at 0.05×10^6 cells per mL. 5000 cells in 100 μL were added to each well of a tissue-culture-treated 96-well plate and the cells incubated overnight in a humidified incubator at 37° C., 5% CO2. The culture media was removed and cells were washed twice with 100 μL assay buffer and replaced with 50 μL assay buffer (HBSS solution containing 10 mM HEPES pH7.4 and 5 mM glucose). Cells were rested at room temperature for 20 minutes after which time 25 μL of rolipram (1.2 mM made up in assay buffer containing 2.4% (v/v) dimethylsulphoxide) was added. Cells were incubated with rolipram for 10 minutes after which time test compounds were added and the cells were incubated for 60 minutes at room temperature. The final rolipram concentration in the assay was 300 μM and final vehicle concentration was 1.6% (v/v) dimethylsulphoxide. The reaction was stopped by removing supernatants, washing once with 100 μL assay buffer and replacing with 50 μL lysis buffer. The cell monolayer was frozen at −80° C. for 30 minutes (or overnight).
The concentration of cAMP (cyclic adenosine monophosphate) in the cell lysate was determined using AlphaScreen™ methodology. The frozen cell plate was thawed for 20 minutes on a plate shaker then 10 μL of the cell lysate was transferred to a 96-well white plate. 40 μL of mixed AlphaScreen™ detection beads pre-incubated with biotinylated cAMP, was added to each well and the plate incubated at room temperature for 10 hours in the dark. The AlphaScreen™ signal was measured using an EnVision spectrophotometer (Perkin-Elmer Inc.) with the recommended manufacturer's settings. cAMP concentrations were determined by reference to a calibration curve determined in the same experiment using standard cAMP concentrations. Concentration response curves for agonists were constructed and data was fitted to a four parameter logistic equation to determine both the pEC50 and Intrinsic Activity. Intrinsic Activity was expressed as a fraction relative to the maximum activity determined for formoterol in each experiment.

[2] = target: T3, recombinant human α1D receptor (Homo sapiens, UniProt P25100); assay: Adrenergic α1D selectivity binding assay ([3H]-prazosin); conditions: inhibition of [3H]-prazosin (0.3 nM) binding, HEK293 membranes; read-out: α1 bind pIC50 (converted)
T3 construct: expressed in transfected cells; host or cells: HEK293
T3 sequence (P25100 1-572): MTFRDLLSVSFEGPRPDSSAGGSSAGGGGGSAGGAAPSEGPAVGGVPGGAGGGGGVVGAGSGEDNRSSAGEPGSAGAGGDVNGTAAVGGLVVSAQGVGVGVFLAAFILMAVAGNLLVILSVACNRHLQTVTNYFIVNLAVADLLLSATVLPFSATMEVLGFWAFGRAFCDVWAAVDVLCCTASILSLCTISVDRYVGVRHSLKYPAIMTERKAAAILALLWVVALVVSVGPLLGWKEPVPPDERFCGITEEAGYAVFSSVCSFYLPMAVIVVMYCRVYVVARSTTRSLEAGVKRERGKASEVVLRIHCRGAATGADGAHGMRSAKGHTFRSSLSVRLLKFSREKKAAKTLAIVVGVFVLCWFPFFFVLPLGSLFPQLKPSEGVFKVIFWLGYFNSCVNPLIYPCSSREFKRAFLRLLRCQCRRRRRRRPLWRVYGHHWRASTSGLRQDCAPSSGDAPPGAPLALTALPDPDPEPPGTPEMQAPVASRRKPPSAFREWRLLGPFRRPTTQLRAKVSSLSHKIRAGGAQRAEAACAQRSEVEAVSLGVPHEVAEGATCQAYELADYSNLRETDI
Experimental: Membranes were prepared from human embryonic kidney 293 (HEK293) cells expressing recombinant human α1D receptor. These were diluted in Assay Buffer (50 mM HEPES, 1 mM EDTA, 0.1% gelatin, pH 7.4) to provide a final concentration of membranes that gave a clear window between maximum and minimum specific binding.
as §1, with “10” for “30”, “[^3H]-prazosin (0.3” for “[^3H]-spiperone (0.16”, “[^3H]-prazosin” for “[^3H]-spiperone”, “BMY7378” for “Haloperidol”, “100” for “300”, “EDTA,” for “EDTA, 120 mM NaCl,”
as §2, with “[^3H]-prazosin” for “[^3H]-spiperone”

T2 sequence (P07550 whole entry): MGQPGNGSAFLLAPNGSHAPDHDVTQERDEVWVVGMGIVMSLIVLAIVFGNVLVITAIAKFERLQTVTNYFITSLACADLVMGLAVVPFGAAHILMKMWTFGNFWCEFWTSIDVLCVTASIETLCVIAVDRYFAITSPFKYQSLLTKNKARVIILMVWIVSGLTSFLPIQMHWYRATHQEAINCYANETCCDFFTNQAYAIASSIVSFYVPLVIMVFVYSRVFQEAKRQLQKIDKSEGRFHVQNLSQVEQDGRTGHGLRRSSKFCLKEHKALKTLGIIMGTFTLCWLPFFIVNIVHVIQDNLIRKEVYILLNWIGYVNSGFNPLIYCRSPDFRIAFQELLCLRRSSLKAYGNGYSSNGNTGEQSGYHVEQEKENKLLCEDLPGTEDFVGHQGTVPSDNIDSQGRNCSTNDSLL
T1 sequence (P14416 1-414 isoform P14416-2): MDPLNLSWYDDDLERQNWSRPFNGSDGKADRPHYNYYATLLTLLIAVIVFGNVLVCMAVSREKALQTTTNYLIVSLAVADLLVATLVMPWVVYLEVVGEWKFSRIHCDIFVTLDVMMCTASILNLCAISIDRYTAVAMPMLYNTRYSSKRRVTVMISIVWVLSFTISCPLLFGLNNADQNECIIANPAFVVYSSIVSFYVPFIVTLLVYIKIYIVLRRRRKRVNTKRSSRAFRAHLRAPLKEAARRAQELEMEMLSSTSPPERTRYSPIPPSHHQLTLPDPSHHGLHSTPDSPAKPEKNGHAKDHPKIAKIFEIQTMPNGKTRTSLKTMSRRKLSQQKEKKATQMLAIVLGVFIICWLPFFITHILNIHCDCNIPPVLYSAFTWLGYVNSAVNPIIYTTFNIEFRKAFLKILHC

SMILES	IC50 [1]	EC50 (Adrenergic β2)	β2 Int Act (Adrenergic β2)	IC50 [2]
CC(C)N(CCNCCc1ccc(O)c2[nH]c(=O)sc12)C(=O)CCNCCc1ccc(Cl)cc1 [Example 3, N^3-[2-(4-Chlorophenyl)ethyl]-N-(2-{[2-(4-hydroxy-2-oxo-2,3-dihydro-1,3-benzothiazol-7-yl)ethyl]amino}ethyl)-N-isopropyl-β-alaninamide bis-trifluoroacetic acid salt]	794 nM	39.8 nM	0.34	251 nM
Cc1cccc(CCNCCC(=O)N(CCNCCc2ccc(O)c3[nH]c(=O)sc23)CC(C)(C)C)c1 [Example 10, N-(2,2-Dimethylpropyl)-N-(2-{[2-(4-hydroxy-2-oxo-2,3-dihydro-1,3-benzothiazol-7-yl)ethyl]amino}ethyl)-N^3-[2-(3-methylphenyl)ethyl]-β-alaninamide bis-trifluoroacetic acid salt]	794 nM	5.01 nM	0.69	251 nM
C[C@H](CNCCC(=O)N(CCNCCc1ccc(O)c2[nH]c(=O)sc12)C1CCCCC1)c1ccccc1 [Example 18, N-Cyclohexyl-N-(2-{[2-(4-hydroxy-2-oxo-2,3-dihydro-1,3-benzothiazol-7-yl)ethyl]amino}ethyl)-N^3-[(2S)-2-phenylpropyl]-β-alaninamide bis-trifluoroacetic acid salt]	794 nM	3.98 nM	0.89	200 nM
CC(C)(Cc1ccccc1)NCCC(=O)N(CCNCCc1ccc(O)c2[nH]c(=O)sc12)C1CCCCC1 [Example 19, N-Cyclohexyl-N^3-(1,1-dimethyl-2-phenylethyl)-N-(2-{[2-(4-hydroxy-2-oxo-2,3-dihydro-1,3-benzothiazol-7-yl)ethyl]amino}ethyl)-β-alaninamide bis-trifluoroacetic acid salt]	1000 nM	39.8 nM	0.70	398 nM
C[C@@H](CNCCC(=O)N(CCNCCc1ccc(O)c2[nH]c(=O)sc12)C1CCCCC1)c1ccccc1 [Example 20, N-Cyclohexyl-N-(2-{[2-(4-hydroxy-2-oxo-2,3-dihydro-1,3-benzothiazol-7-yl)ethyl]amino}ethyl)-N^3-[(2R)-2-phenylpropyl]-β-alaninamide bis-trifluoroacetic acid salt]	794 nM	10 nM	0.97	251 nM
CC(C)N(CCNCCc1ccc(O)c2[nH]c(=O)sc12)C(=O)CCNCCc1ccccc1 [Example 1, N-(2-{[2-(4-Hydroxy-2-oxo-2,3-dihydro-1,3-benzothiazol-7-yl)ethyl]amino}ethyl)-N-isopropyl-N^3-(2-phenylethyl)-β-alaninamide bis-trifluoroacetic acid salt]	398 nM	20 nM	0.78	251 nM

More lines, now with the values ahead:

IC50 [1]	EC50 (Adrenergic β2)	β2 Int Act (Adrenergic β2)	IC50 [2]	SMILES
200 nM	5.01 nM	0.84	126 nM	COc1cccc(CCNCCC(=O)N(CCNCCc2ccc(O)c3[nH]c(=O)sc23)C2CCCCC2)c1 [Example 70, N^1-Cyclohexyl-N^1-(2-{[2-(4-hydroxy-2-oxo-2,3-dihydro-1,3-benzothiazol-7-yl)ethyl]amino}ethyl)-N^3-[2-(3-methoxyphenyl)ethyl]-β-alaninamide bis-trifluoroacetic acid salt]
1260 nM	251 nM	0.58	631 nM	CC(=O)OCC(C)(C)CN(CCNCCc1ccc(O)c2[nH]c(=O)sc12)C(=O)CCNCCc1ccc(Cl)cc1 [Example 39, 3-[{N-[2-(4-Chlorophenyl)ethyl]-β-alanyl}(2-{[2-(4-hydroxy-2-oxo-2,3-dihydro-1,3-benzothiazol-7-yl)ethyl]amino}ethyl)amino]-2,2-dimethylpropyl acetate diacetic acid salt]
3980 nM	31.6 nM	0.85	251 nM	CC(C)(CNCCC(=O)N(CCNCCc1ccc(O)c2[nH]c(=O)sc12)C1CCCCC1)c1ccccc1 [Example 21, N-Cyclohexyl-N-(2-{[2-(4-hydroxy-2-oxo-2,3-dihydro-1,3-benzothiazol-7-yl)ethyl]amino}ethyl)-N^3-(2-methyl-2-phenylpropyl)-β-alaninamide bis-trifluoroacetic acid salt]
631 nM	15.8 nM	0.78	100 nM	O=C(CCNCCc1ccccn1)N(CCNCCc1ccc(O)c2[nH]c(=O)sc12)C1CCCCC1 [Example 33, N-Cyclohexyl-N-(2-{[2-(4-hydroxy-2-oxo-2,3-dihydro-1,3-benzothiazol-7-yl)ethyl]amino}ethyl)-N^3-(2-pyridin-2-ylethyl)-β-alaninamide bis-trifluoroacetic acid salt]
